# Measured values published in patent US20260308222A1, “STABILIZED ANALOGUES OF CALCITONIN” (YISSUM RESEARCH DEVELOPMENT COMPANY OF THE HEBREW …, priority 2024, published 2026).
# Assays:
# [1] = test system: human calcitonin receptor (hCTR); conditions: Potts Jr., 1992; cited from earlier work
# [2] = target: T1, calcitonin receptor (CTR) (Homo sapiens, UniProt P30988); assay: Ca^2+ concentration assay, HEK293 CALCR-HiTSeeker cell line; format: cell-based; set-up: expressed in transfected cells; conditions: HEK293 CALCR-HiTSeeker cells
# T1 sequence (P30988 25-474): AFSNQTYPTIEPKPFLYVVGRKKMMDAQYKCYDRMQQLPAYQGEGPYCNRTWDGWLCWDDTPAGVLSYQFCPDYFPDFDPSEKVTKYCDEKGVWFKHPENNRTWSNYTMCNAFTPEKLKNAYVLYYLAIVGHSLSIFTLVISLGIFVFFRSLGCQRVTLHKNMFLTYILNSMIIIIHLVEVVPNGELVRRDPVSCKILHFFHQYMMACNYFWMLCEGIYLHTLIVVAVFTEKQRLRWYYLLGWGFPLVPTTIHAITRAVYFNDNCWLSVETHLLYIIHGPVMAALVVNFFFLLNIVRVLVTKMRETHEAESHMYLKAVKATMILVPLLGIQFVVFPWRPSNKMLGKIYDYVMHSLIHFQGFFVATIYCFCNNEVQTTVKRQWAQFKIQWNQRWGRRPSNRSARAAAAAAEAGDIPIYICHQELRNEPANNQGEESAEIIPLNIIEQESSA
# [3] = Circular dichroism analysis, percent α-helicity; format: physicochemical; conditions: 10-30 μM peptide, 10 mM phosphate buffer pH 7, SDS, 2 h folding
# Protocol: Following synthesis of the calcitonin analogues, the helicity of the calcitonin analogues was assessed by circular dichroism analysis. Far ultraviolet spectra (FIG. 6) were obtained from 195-260 nm on J-180 spectropolarimeter (Jasco) using 10-30 μM of sCT and all analogues in 10 mM phosphate buffer pH 7 and in the presence of sodium dodecyl sulphate (SDS), which were left for 2 h to allow folding. Each spectrum represents the average of 3 scans, and the mean residue ellipticity (θMRE) was calculated according to the following equation: […]
# Percentage helicity of peptides as presented in Table 2 was calculated according to the following equation (Sommese, et al. 2010): […]
# where n is the number of amino acids in the peptide.
# [4] = test system: vertebral fracture / acute back pain; conditions: cited from earlier work
# [5] = target: T1, calcitonin receptor (CTR); assay: cAMP accumulation assay, U2OS Red cAMPNomad-CALCR cell line; format: cell-based; set-up: expressed in transfected cells; host or cells: U2OS Red cAMPNomad-CALCR; conditions: U2OS Red cAMPNomad-CALCR cells
# [6] = Degradation in simulated intestinal fluid (SIF); conditions: simulated intestinal fluid, pH 6.8, SIF t1/2, pancreatin 2 mg/mL stock, pH 6.8, 37 °C
# [7] = Degradation in simulated gastric fluid (SGF); format: in vitro ADME; conditions: pH 1.3, 37 °C
# Protocol: sCT and its analogues were evaluated for their degradation in simulated gastric fluid (SGF). The stock solution of each analogue was prepared by dissolving 2 mg of the peptide in 1 mL water. The stock solution of pepsin enzyme was prepared by dissolving 5 mg of pepsin in 5 mL of 10 mM HCl (1 mg/mL), and then was diluted to a 0.2 mg/mL with 10 mM HCl. 7 For degradation, 34 μL of pepsin (0.2 mg/mL) was added to 100 μL of peptide (2 mg/mL) at pH 1.3 and the reaction incubated at 37° C. To monitor the degradation, 10 μL of the reaction aliquots were taken and quenched with 10 μL of 10 mM NaOH every 30 min for several hours and analyzed by HPLC using XSelect C18 column ([…], 130 A, 4.6×150 mm) with a gradient of 5-70% of 0.1% TFA in MeCN over 20 min with monitoring at 220 nm.
Molecule,affinity for hCTR [1],potency [1],Ca^2+ EC50 / efficacy [2],EC50 ([2]; read-out: Ca^2+ EC50),% α helicity [3],side effects of parenteral sCT ([4]; intra-muscular and subcutaneous injections),cAMP EC50 / potency [5],"EC50 ([5]; overnight incubation, read-out: cAMP EC50)",half-life [6],SGF t1/2 ([7]; pepsin 0.2 mg/mL stock),"half-life ([7]; simulated gastric fluid, pH 1.3, pepsin 0.2 mg/mL stock, read-out: SGF t1/2)","vertebral fracture recurrence and pain relief ([4]; Chesnut III, et al., 2000)"
"CC(C)C[C@H](NC(=O)[C@H](CCCCN)NC(=O)CNC(=O)[C@H](CC(C)C)NC(=O)[C@@H](NC(=O)[C@@H]1CSSC[C@H](N)C(=O)N[C@@H](CO)C(=O)N[C@@H](CC(N)=O)C(=O)N[C@@H](CC(C)C)C(=O)N[C@@H](CO)C(=O)N[C@@H]([C@@H](C)O)C(=O)N1)C(C)C)C(=O)N[C@@H](CO)C(=O)N[C@@H](CCC(N)=O)C(=O)N[C@@H](CCC(=O)O)C(=O)N[C@@H](CC(C)C)C(=O)N[C@@H](Cc1c[nH]cn1)C(=O)N[C@@H](CCCCN)C(=O)N[C@@H](CC(C)C)C(=O)N[C@@H](CCC(N)=O)C(=O)N[C@H](C(=O)N[C@@H](Cc1ccc(O)cc1)C(=O)N1CCC[C@H]1C(=O)N[C@@H](CCCNC(=N)N)C(=O)N[C@H](C(=O)N[C@@H](CC(N)=O)C(=O)N[C@H](C(=O)NCC(=O)N[C@@H](CO)C(=O)NCC(=O)N[C@H](C(=O)N1CCC[C@H]1C(N)=O)[C@@H](C)O)[C@@H](C)O)[C@@H](C)O)[C@@H](C)O [sCT, reference compound]",highest affinity for the human calcitonin receptor (hCTR),highest potency,similar,87 ± 17.5 nM,98.6%,gastrointestinal (GI) disturbances and injection site reactions,EC50 in the nanomolar range,13.5 ± 4.5 nM,7.1 ± 0.7 min,35.6 ± 0.1 min,35 min,
calcitonin,,,,,,,,,,,,reduces the risk of vertebral fracture recurrence and provides pain relief for acute back pain caused by vertebral fractures
